In patent EP2130831A1, “CDC25 inhibitors” (InterMed Discovery GmbH, priority 2008, dated 2009):
Like-named read-outs stand apart in the source and are kept apart here. One block for each molecule: values may come before it.

Legend:
DU145 = test: Cell proliferation Assay (Alamar Blue), DU145; format: cell-based; conditions: Homo sapiens, DU-145, 72 hrs
Experimental: (§1) Used cell lines: HCT116; DU145; A549, H460 In a 96-well plate, 3000 cells/well were plated in 100 µl DMEM containing 10% FBS, 10 mM HEPES and 1% Penicllin/Streptomycin. To each well 50 µl of additional growth media containing the compound with 0.1% DMSO was added. Cells were grown for 72 hrs. at 37°C. 20 µl of Alamar Blue reagent was added and incubated for 3-5 hours until color develops. Plates were read in a SpectraMax Gemini (Molecular Devices, CA) with 544 nm excitation and 590 nm emission wavelength.

CDC25C = target: T1, CDC25C (Homo sapiens, UniProt P30307); test: CDC25C Enzyme Assay (hydrolysis of fluorogenic substrate OMFP); format: biochemical
T1 sequence (P30307 1-473): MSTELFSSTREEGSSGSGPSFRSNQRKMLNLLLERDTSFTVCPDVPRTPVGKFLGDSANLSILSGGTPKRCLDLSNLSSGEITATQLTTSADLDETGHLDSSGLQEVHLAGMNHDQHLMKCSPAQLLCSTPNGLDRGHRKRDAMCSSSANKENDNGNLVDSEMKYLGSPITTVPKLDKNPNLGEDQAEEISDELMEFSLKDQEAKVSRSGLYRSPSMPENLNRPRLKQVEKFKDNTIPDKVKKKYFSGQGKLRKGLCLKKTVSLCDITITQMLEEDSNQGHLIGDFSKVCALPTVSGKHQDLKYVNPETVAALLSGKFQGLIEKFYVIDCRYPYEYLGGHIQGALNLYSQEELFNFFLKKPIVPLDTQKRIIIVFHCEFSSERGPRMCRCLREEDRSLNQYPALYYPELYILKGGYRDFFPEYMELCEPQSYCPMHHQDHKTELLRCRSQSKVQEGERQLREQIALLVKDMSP
Experimental: The assay principle was hydrolysis of an artificial fluorogenic substrate of CDC25C, 3-0-methyl-fluorescein monophosphate (OMFP). […] The assay was performed in 96 well microtiter plates (Greiner 96 well black FIA plates) at ambient temperature.
The additions to the wells were as follows: 1 Addition of 4 µl of a DMSO solution of the test compound; controls received 4 µl of DMSO instead 2 Addition of 76 µl assay buffer (assay buffer: 100 mM Tris pH 8.2, 40 mM NaCl. 5 mM DTT, 20% glycerol) 3 Addition of 10 µl CDC25 C (CDC25 C in assay buffer; protein final concentration 1.1 µg/mL) 4 Start of reaction by addition of 10 µl OMFP (substrate in assay buffer; final concentration of OMFP in assay: 90 µM )
Ortho-vanadate was used as a reference inhibitor. Background controls contained buffer, substrate and DMSO, but no enzyme. The microtiter plates were analyzed using a Tecan Ultra fluorescence reader.

HCT116 = test: Cell proliferation Assay (Alamar Blue), HCT116; format: cell-based; conditions: Homo sapiens, HCT-116, 72 hrs
Experimental: as §1

H460 = test: Cell proliferation Assay (Alamar Blue), H460; format: cell-based; conditions: Homo sapiens, NCI-H460, 72 hrs
Experimental: as §1

A549 = test: Cell proliferation Assay (Alamar Blue), A549; format: cell-based; conditions: Homo sapiens, 72 hrs
Experimental: as §1, with “wavelength. Table #5: Results assay #2” for “wavelength.”

CDC25A = target: T2, CDC25A (Homo sapiens, UniProt P30304); test: CDC25A inhibition assay (sub-type selectivity); format: biochemical; conditions: after 20 minutes of pre-incubation; read-out: IC50 against CDC25A
T2 sequence (P30304 1-524): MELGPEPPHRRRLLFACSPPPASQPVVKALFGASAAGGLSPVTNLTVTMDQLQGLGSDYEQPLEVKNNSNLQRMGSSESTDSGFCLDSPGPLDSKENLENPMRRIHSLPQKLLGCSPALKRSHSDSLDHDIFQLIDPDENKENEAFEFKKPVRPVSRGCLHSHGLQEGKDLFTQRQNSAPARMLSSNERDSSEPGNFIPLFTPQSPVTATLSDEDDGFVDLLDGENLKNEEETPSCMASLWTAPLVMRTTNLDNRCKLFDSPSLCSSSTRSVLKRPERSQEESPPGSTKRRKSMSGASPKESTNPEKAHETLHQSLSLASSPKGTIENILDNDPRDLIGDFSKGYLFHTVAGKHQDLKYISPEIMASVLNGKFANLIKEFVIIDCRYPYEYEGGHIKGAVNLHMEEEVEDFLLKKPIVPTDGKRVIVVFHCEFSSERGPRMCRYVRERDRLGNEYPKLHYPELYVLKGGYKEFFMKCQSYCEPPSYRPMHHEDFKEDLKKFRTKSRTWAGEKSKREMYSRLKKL
Excerpt: (§2) The compound of example 5 was thoroughly characterized towards its selectivity for CDC25 sub-types A, B, and C.

PTP1 B = target: T3, PTP1 B (Homo sapiens, UniProt P18031); test: Phosphatase counter-screen against PTP1 B; format: biochemical
T3 sequence (P18031 1-435): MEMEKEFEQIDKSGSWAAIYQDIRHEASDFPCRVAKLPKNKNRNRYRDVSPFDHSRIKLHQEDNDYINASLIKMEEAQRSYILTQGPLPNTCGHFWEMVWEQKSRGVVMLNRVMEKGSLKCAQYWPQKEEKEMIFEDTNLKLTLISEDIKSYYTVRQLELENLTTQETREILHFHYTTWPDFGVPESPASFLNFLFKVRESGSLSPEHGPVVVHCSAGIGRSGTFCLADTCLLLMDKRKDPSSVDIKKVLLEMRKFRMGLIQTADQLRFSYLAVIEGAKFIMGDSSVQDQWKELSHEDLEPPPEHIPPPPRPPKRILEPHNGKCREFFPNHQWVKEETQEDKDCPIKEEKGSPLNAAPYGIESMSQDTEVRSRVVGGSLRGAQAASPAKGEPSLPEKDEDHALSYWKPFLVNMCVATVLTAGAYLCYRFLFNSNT

CDC25B = target: T4, CDC25B (Homo sapiens, UniProt P30305); test: CDC25B inhibition assay (sub-type selectivity); format: biochemical; conditions: after 20 minutes of pre-incubation; read-out: IC50 against CDC25B
T4 sequence (P30305 1-580): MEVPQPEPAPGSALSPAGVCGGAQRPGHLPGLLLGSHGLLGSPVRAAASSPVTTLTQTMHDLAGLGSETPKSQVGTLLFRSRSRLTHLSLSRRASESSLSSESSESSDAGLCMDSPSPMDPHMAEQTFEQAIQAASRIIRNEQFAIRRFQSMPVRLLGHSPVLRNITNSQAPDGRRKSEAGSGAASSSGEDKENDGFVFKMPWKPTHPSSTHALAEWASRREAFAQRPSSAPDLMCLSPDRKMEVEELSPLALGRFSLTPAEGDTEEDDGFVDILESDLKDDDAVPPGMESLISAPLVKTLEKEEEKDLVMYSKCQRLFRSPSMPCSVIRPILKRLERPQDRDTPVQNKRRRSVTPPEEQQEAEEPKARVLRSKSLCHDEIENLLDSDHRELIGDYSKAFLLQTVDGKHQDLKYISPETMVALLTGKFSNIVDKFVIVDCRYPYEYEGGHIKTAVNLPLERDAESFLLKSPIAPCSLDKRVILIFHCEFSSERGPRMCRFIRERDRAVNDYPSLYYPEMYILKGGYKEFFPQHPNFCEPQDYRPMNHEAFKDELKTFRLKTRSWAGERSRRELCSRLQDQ
Excerpt: as §2

[1] = system: leukemia cell line (P388); test: In vitro cell assays against a leukemia cell line; format: cell-based; conditions: result in words
LAR (PTPRF) = LAR (PTPRF) (Homo sapiens, UniProt P10586); test: Phosphatase counter-screen against LAR (PTPRF); format: biochemical
LAR (PTPRF), sequence (P10586 30-1907, species assumed): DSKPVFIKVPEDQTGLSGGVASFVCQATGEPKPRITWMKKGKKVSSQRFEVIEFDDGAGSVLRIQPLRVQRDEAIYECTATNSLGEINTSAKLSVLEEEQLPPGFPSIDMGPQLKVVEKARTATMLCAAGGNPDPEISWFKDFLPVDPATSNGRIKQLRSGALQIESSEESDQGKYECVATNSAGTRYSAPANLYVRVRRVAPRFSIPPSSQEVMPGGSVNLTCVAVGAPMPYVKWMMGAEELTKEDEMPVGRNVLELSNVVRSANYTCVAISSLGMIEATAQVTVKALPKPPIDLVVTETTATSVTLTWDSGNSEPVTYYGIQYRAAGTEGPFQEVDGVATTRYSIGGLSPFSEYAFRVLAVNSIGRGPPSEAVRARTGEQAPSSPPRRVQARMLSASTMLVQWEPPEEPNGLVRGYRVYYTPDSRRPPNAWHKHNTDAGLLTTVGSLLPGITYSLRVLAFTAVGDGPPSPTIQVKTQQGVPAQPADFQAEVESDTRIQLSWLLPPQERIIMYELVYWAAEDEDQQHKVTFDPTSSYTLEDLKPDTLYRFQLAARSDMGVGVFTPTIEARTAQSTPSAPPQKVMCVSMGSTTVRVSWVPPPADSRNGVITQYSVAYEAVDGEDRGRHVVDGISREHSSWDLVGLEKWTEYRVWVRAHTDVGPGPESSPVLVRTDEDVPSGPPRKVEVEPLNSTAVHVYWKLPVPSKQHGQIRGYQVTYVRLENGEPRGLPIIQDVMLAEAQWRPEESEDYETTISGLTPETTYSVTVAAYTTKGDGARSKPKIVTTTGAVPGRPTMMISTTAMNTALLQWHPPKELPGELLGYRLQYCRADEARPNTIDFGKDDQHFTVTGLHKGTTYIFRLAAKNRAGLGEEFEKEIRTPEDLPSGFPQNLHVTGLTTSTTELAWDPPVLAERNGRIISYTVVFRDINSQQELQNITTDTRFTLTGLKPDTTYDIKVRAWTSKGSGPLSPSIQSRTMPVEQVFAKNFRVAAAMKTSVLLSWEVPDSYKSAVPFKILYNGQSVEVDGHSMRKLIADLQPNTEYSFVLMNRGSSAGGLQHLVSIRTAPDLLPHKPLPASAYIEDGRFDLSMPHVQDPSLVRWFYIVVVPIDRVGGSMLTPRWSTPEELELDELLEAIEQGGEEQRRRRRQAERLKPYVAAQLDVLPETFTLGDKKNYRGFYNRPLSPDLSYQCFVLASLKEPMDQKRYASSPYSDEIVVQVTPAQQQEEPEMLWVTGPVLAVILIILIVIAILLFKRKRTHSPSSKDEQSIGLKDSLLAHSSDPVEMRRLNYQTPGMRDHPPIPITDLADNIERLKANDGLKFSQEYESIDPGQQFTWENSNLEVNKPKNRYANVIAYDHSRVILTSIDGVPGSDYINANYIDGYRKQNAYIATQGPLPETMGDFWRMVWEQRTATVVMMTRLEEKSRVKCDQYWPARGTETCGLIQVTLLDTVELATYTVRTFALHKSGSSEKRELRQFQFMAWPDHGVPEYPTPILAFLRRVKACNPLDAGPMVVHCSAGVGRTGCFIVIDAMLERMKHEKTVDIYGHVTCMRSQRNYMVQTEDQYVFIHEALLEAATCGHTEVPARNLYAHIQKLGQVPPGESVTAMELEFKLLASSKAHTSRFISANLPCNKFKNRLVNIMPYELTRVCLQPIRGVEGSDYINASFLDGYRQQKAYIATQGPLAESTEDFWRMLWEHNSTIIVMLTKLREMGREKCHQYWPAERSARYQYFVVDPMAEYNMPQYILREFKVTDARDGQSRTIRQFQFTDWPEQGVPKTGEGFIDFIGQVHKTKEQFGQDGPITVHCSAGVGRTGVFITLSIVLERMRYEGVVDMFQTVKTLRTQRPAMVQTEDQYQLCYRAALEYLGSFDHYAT

CDC25 = conditions: literature reports; cited from earlier work
[2] = OMFP 90 µM, ambient temperature, assay run time 20 minutes, read-out: IC50

Molecule: Cc1cc(=O)n2c3c(c4c(cc13)c(CO)cc(=O)n4C)OC2 [Example 1, nybomycin]
IC50 (DU145): 720 nM | IC50 (CDC25C; [2]): > 20000 nM | IC50 (HCT116): 730 nM | IC50 (H460): 230 nM

Molecule: Cn1c(=O)cc(CO)c2cc3c(CO)cc(=O)n4c3c(c21)OC4 [Example 4, 6'-hydroxynybomycin]
IC50 (CDC25C; [2]): 14000 nM

Molecule: Cc1cc(=O)n(C)c2c(O)c3c(cc12)c(C)cc(=O)n3O [Example 8, 1,10-dihydroxy-4,6,9-trimethylpyrido[3,2-g]-quinoline-2,8(1H,9H)-dione]
IC50 (CDC25C; [2]): 520 nM | potential as inhibitors of CDC25 compared with the comparative examples (1, 2, 3, 4, 6 and 9) [1]: much higher potential

Molecule: C=C(C)CCC[C@]1(C)CCC[C@@H]2C1=CC[C@@H](C)[C@@]2(C)C[C@@H](O)C1=CC(=O)O[C@H]1O [dysidiolide]
inhibit CDC25 (CDC25): micromolar levels

Molecule: coscinosulfate
inhibit CDC25 (CDC25): micromolar levels

Molecule: nocardione
inhibit CDC25 (CDC25): micromolar levels

Now from value to molecule, other results behind:

IC50 (CDC25C; [2]): > 10000 nM
Molecule: Cc1cc(=O)n(C)c2c3c4c(cc12)c(C)cc(=O)n4CO3 [Example 2, deoxynybomycin]

IC50 (CDC25C; [2]): 5000 nM
Molecule: Cc1cc(=O)n(C)c2c3c4c(c(C)cc(=O)n4CO3)c(O)c12 [Example 3, 7-hydroxy-deoxynybomycin]

IC50 (A549): 100 nM | IC50 (CDC25A): 150 nM | IC50 (DU145): 100 nM | selectivity for CDC25 subtypes in comparison to PTP1 B (PTP1 B): 13 fold | IC50 (CDC25C; after 20 minutes of pre-incubation, read-out: IC50 against CDC25C): 180 nM | IC50 (CDC25B): 230 nM | IC50 (HCT116): 100 nM | IC50 (H460): < 300 nM | selectivity for CDC25 subtypes in comparison to LAR (LAR (PTPRF)): 100 fold
Molecule: Cc1cc(=O)[nH]c2c(O)c3c(cc12)c(C)cc(=O)n3C [Example 5, 10-hydroxy-1,4,6-trimethylpyndo[3,2-g]quino-line-2,8(1H,9H)-dione]
potential as inhibitors of CDC25 compared with the comparative examples (1, 2, 3, 4, 6 and 9) [1]: much higher potential

IC50 (A549): < 10000 nM | IC50 (DU145): 3000 nM | IC50 (CDC25C; [2]): 14500 nM | IC50 (HCT116): 3000 nM | IC50 (H460): < 10000 nM
Molecule: Cc1cc(=O)n(C)c2c(O)c3c(cc12)c(C)cc(=O)n3C [Example 6, 10-hydroxy-1,4,6,9-tetramethylpyrido[3,2-g]-quinoline-2,8(1H,9H)-dione]

IC50 (CDC25C; [2]): 930 nM
Molecule: Cc1cc(=O)[nH]c2c(O)c3c(cc12)c(CO)cc(=O)n3C [Example 7, 10-hydroxy-4-(hydroxymethyl)-1,6-dimethyl-pyrido[3,2-g]quinoline-2,8(1H,9H)-dione]
potential as inhibitors of CDC25 compared with the comparative examples (1, 2, 3, 4, 6 and 9) [1]: much higher potential

IC50 (CDC25C; [2]): 225000 nM
Molecule: CCCc1c2c([nH]c(=O)c1C)C(=O)c1[nH]c(=O)c(C)c(CCC)c1C2=O [Example 9, 3,7-dimethyl-4,6-dipropylpyrido[3,2-g]-qujnoline-2,5,8,10(1H,9H)-tetraone; Diazaquinomycin A]

IC50 (CDC25C; [2]): 850 nM
Molecule: CCCc1c(C)c(=O)[nH]c2c(O)c3[nH]c(=O)c(C)c(CCC)c3cc12 [Example 10, 10-hydroxy-3,7-dimethyl-4,6-dipropylpyrido-[3,2-g]quinoline-2,8(1H,9H)-dione]
potential as inhibitors of CDC25 compared with the comparative examples (1, 2, 3, 4, 6 and 9) [1]: much higher potential
